Legend:
[1] = tested on: HCT 116 (colon), NCIH460 (lung) and U251 (glioma) cell lines; test: Anti-cancer screen (MTT growth inhibition, 48 hours); type: cell-based; details: Homo sapiens; HCT 116, NCIH460 and U251 cell lines; MTT after 48 hours of incubation;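 further: mean GI50 across the three cell lines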
Experimental: The experimental drugs were screened for anti-cancer activity in three cell lines using five concentrations for each compound. The cell lines—HCT 116 (colon), NCIH460 (lung) and U251 (glioma) were maintained in DMEM containing 10% fetal bovine serum. 96-well microtiter plates are inoculated with cells in 100 μL of cell suspension (5×10^4 cells/mL) for 24 hours at 37° C., 5% CO2, 95% air and 100% relative humidity. A separate plate with these cell lines is also inoculated to determine cell viability before the addition of the compounds (T0)
Following 24-hour incubation, test compounds were added to the 96 well plates. Each plate contains one of the above cell lines and the following samples in triplicate: five different dilutions (0.01, 0.1, 1, 10 and 100 μM) of four test compounds, appropriate dilutions of a cytotoxic standard and growth medium (untreated) wells. Test compounds were dissolved in DMSO to prepare 20 mM stock solutions on the day of drug addition and serial dilutions were carried out in complete growth medium at 2× strength, such that 100 μL added to the wells gave final concentrations (0.01, 0.1, 1, 10 and 100 μM) in the well. SAHA was used as the standard drug in these experiments.
For T0 measurement, 24 hours after seeding the cells, 20 μL of 3-(4,5-dimethyl-2-thiazolyl)-2,5-diphenyl-2H-tetrazolium (MTT) solution per well was added to the ‘T0’ plate and incubated for 3 hours at 37° C. in a CO2 incubator. The plate containing cells and test compounds was treated similarly after 48 hours of incubation. After 3 hours of MTT addition, well contents were aspirated carefully followed by addition of 150 μL DMSO per well. Plates were agitated to ensure dissolution of the formazan crystals in DMSO and absorbance was read at 570 nm (A570).
Percent growth (PG) is calculated relative to the control and zero measurement wells (T0) as follows:
PG values are plotted against drug concentration to derive the following: GI50 is the concentration required to decrease PG by 50% vs control; TGI is the concentration required to decrease PG by 100% vs control and LC50 is the concentration required to decrease PG by 50% vs T0. (Mosmann T. Rapid colorimetric assay for cellular growth and survival: application to proliferation and cytotoxicity assays. (J. Immunol. Methods. 1983, 65 (1-2), 55-63; Anne Monks et al); feasibility of high-flux anticancer drug screen using a diverse panel of cultured human tumor cell lines”. (JNCI, Vol. 83, No. 11, 1991). Results for growth inhibition of synthesized compounds are given in Table-1.

[2] = tested on: IL-6 in supernatant of NCIH 460 cells; test: Measuring IL-6 in culture supernatants (ELISA); type: cell-based; details: Homo sapiens, NCI-H460, 5 hours incubation

Compound | GI50 [1] [µM] | inhibition at 10 µM [2] [%]
COC(=O)/C(=C/c1ccc(F)c(C)c1)c1ccc(OCC(O)CNCCOc2ccccc2OC)cc1 (stereo not shown) [Example 19, 2-{4-[3-(2-Methoxyphenoxyethylamino)-2-hydroxypropoxy]phenyl}-3-(4-fluoro-3-methylphenyl)acrylic acid methyl ester] | 4.9 | 15.9
COC(=O)/C(=C/c1ccc(F)c(OC)c1)c1ccc(OCC(O)CNCCOc2ccccc2OC)cc1 (stereo not shown) [Example 7, 2-{4-[3-(2-Methoxyphenoxyethylamino)-2-hydroxypropoxyl]phenyl}-3-(4-fluoro-3-methoxyphenyl)acrylic acid methyl ester] | 2.2 | 58
COC(=O)/C(=C/c1ccc(OC)cc1OC)c1ccc(OCC(O)CNCc2ccc(OC)cc2OC)cc1 (stereo not shown) [Example 32, 2-{4-[3-(2,4-Dimethoxybenzylamino)-2-hydroxypropoxy]phenyl}-3-(2,4-dimethoxyphenyl)acrylic acid methyl ester] | 0.6 | 70.5
COC(=O)/C(=C/c1ccc(F)c(F)c1)c1ccc(OCC(O)CNCc2ccc(OC)cc2OC)cc1 (stereo not shown) [Example 15, 2-{4-[3-(2,4-Dimethoxybenzylamino)-2-hydroxypropoxyl]phenyl}-3-(3,4-difluorophenyl)acrylic acid methyl ester] | 2.8 | 44
COC(=O)/C(=C/c1cc(OC)c(OC)c(OC)c1)c1ccc(OCC(O)CNCc2ccc(OC)cc2OC)cc1 (stereo not shown) [Example 6, 2-{4-[3-(2,4-Dimethoxybenzylamino)-2-hydroxypropoxyl]phenyl}-3-(3,4,5-trimethoxyphenyl)acrylic acid methyl ester] | 5.2 | 73
COC(=O)/C(=C/c1ccc(Cl)cc1)c1ccc(OCC(O)CNCc2ccccc2)cc1 (stereo not shown) [Example 27, 2-{4-[3-(Benzylamino)-2-hydroxypropoxy]phenyl}-3-(4-chlorophenyl)acrylic acid methyl ester] | 6.5 | 32.7
COC(=O)/C(=C/c1ccccc1)c1ccc(OCC(O)CNCCOc2ccccc2OC)cc1 (stereo not shown) [Example 25, 2-{4-[3-(2-Methoxyphenoxyethylamino)-2-hydroxypropoxy]phenyl}-3-phenylacrylic acid methyl ester] | 27.8 | 20.5
COC(=O)/C(=C/c1ccc(OCC(O)CNCc2ccccc2)cc1)c1ccc(OC)cc1 (stereo not shown) [Example 30, 3-{4-[3-(Benzylamino)-2-hydroxypropoxy]phenyl}-2-(4-(methoxy)phenyl)acrylic acid methyl ester] | 1.4 | 27.8
COC(=O)/C(=C/c1cc(OC)cc(OC)c1)c1ccc(OCC(O)CNCc2ccc(OC(F)(F)F)cc2)cc1 (stereo not shown) [Example 4] | 32.4 | –

Second part, led by results:

GI50 [1] [µM] | Compound | inhibition at 10 µM [2] [%]
2.6 | COC(=O)/C(=C/c1ccc(OC)cc1OC)c1ccc(OCC(O)CNCCOc2ccccc2OC)cc1 (stereo not shown) [Example 33, 2-{4-[3-(2-Methoxyphenoxyethylamino)-2-hydroxypropoxy]phenyl}-3-(2,4-dimethoxyphenyl)acrylic acid methyl ester] | 61.2
1.3 | COC(=O)/C(=C/c1ccc(OCC(O)CNCc2ccc(OC)cc2OC)cc1)c1cccc(Cl)c1 (stereo not shown) [Example 47, 3-{4-[3-(2,4-Dimethoxybenzylamino)-2-hydroxypropoxy]phenyl}-2-(3-chlorophenyl)acrylic acid methyl ester] | 59
6.3 | COC(=O)/C(=C/c1ccc(OCC(O)CNCc2ccccc2)cc1)c1ccc(C)cc1 (stereo not shown) [Example 39, 3-{4-[3-(Benzylamino)-2-hydroxypropoxy]phenyl}-2-(4-methylphenyl)acrylic acid methyl ester] | 41.8
18.7 | COC(=O)/C(=C/c1ccc(OCC(O)CNCCOc2ccccc2OC)cc1)c1cccs1 (stereo not shown) [Example 34, 3-{4-[3-(2-Methoxyphenoxyethylamino)-2-hydroxypropoxy]phenyl}-2-(thiophen-2-yl)acrylic acid methyl ester] | 41.9
